Measured values published in patent publication US9932339B2, “Helquats with heteroaromatic substituents, preparation thereof, and use thereof as G-quadruplex stabilizers” (USTAV ORGANICKE CHEMIE A BIOCHEMIE AV CR, V.V.I., priority 2014, dated 2018).

Tests used:
[1] = tested on: c-myc protein; assay: Immunodetection of protein c-myc in HGC-27 cell lysates (Western blot); type: cell-based, human; settings: 50 μmol · l^−1, 24 hour incubation, normalized to β-actin
Summary of the method: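 HGC-27 cells seeded at 25,000 cells/cm^2, treated next day with 50 μmol·l^−1 helquat for 24 h. RIPA lysates separated by 12% SDS-PAGE, blotted and probed for c-myc with β-actin loading control; chemiluminescence densitometry, c-myc normalized to β-actin and expressed relative to untreated control.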

[2] = tested on: G-quadruplex oligonucleotide F21T (human telomere); assay: FRET melting of G-quadruplex oligonucleotide F21T with ligands; type: binding; settings: for ΔTm (° C.) F21T/ds26: helquat 1 μmol·l^−1, oligonucleotide 0.2 μmol·l^−1, 50-fold excess of double-stranded competitor ds26; for ΔTm (° C.) F21T: helquat 1 μmol·l^−1, oligonucleotide 0.2 μmol·l^−1, without competitor
Source text: To determine the degree of in vitro interactions of helquats with G-quadruplex(es), the oligonucleotides containing the guanine-rich sequences of human telomere (F21T) and NHE III1 promoter region of c-myc oncogene (Fmyc27T) were used. Both oligonucleotides capable of forming an intramolecular G-quadruplex were end-labeled with suitable fluorophores so as to form donor-acceptor FRET pair (5′-FAM and 3′-TAMRA). If the oligonucleotide is folded into the structure of the G-quadruplex, donor is in close proximity of acceptor and radiationless energy transfer to the acceptor occurs. With increasing temperature of the reaction mixture G-quadruplex structure gradually denatures and thus the donor and acceptor (FAM-TAMRA) drift apart. This leads to an increase in fluorescence of donor (FAM) and a decrease in fluorescence of acceptor (TAMRA).
The result of measurement is the curve of dependence of the intensity of fluorescence of the donor on the temperature. If the G-quadruplex is stabilized by ligand, melting temperature will increase. Melting temperature of G-quadruplex corresponds to the temperature when 50% of the original amount of the folded G-quadruplex is denatured. The measurement outcome is the difference in the melting temperatures (ΔTm) of the G-quadruplex alone and the G-quadruplex stabilized by ligand. In case of Fmyc27T experiments were performed in cacodylate buffer (10 mmol·l^−1, pH=7.2) with KCl (5 mmol·l^−1) and LiCl (95 mmol·l^−1) oligonucleotide and in case of F21T oligonucleotide in cacodylate buffer (10 mmol·l^−1, pH=7.2) with KCl (25 mmol·l^−1) and LiCl (75 mmol·l^−1).
Both oligonucleotides were denatured for 5 minutes at 95° C. and subsequently allowed to cool to room temperature (3 hours) in the switched-off thermoblock. The final oligonucleotide concentration in the reaction mixture was 0.2 μmol·l^−1. Test helquats were present at concentrations of 1 μmol·l^−1. The total reaction volume was 30 μl. The melting temperature of the oligonucleotides alone (without the presence of helquats) under these conditions was 58.1±0.2° C. for F21T and 64.7±0.4° C. for Fmyc27T. For determining the selectivity of binding of helquats to G-quadruplex in comparison with the double-stranded DNA, 50-fold excess of double-stranded DNA ([…] unlabeled competitor ds26 forming a hairpin) is added to the reaction mixture. After the addition to the reaction mixture ds26 competes with labeled oligonucleotide (Fmyc27T or F21T) for ligand binding. […] Melting temperature of oligonucleotides alone in the presence of the competitor is 59.4±0.5° C. for F21T and 66.3° C.±0.6° C. for Fmyc27T.
Fluorescence of FAM donor was measured using real-time PCR apparatus Opticon 2 (excitation 470-505 nm and emission 523-543 nm) in temperature increments of 0.5° C. in the range 25 to 95° C. Evaluation of the sigmoid curves of fluorescence intensity dependent on the temperature were performed in GraphPad Prism 5 (GraphPad Software, Inc., USA). Using nonlinear five parametric regression the inflection point on the curve was calculated that corresponds to the melting temperature (Tm) of the G-quadruplex under the given conditions. The values were obtained from at least three independent measurements.

SMILES | c-myc protein expression relative to control (control = 100%) [1] | ΔTm (° C.) F21T/ds26 [2] | ΔTm (° C.) F21T [2]
Brc1ccc2[nH]cc(/C=C/c3cc4ccccc4[n+]4c3-c3c(ccc5c3-c3cccc[n+]3CCC5)CCC4)c2c1.O=S(=O)([O-])C(F)(F)F.O=S(=O)([O-])C(F)(F)F [MSC-C9-30, 19-((E)-2-(5-bromo-1H-indol-3-yl)vinyl)-6,7,8,11,12,13-hexahydropyrido[1′″,2′″:1″,2″]azepino[4″,3″:5′,6′]benzo[1′,2′:3,4]azepino[1,2-a]quinoline-5,14-diium trifluoromethanesulfonate] | 14% |  | 
O=[N+]([O-])c1cccc2[nH]cc(/C=C/c3cc[n+]4c(c3)-c3c(ccc5c3-c3cccc[n+]3CC5)CC4)c12 (racemic) [LSA-C9-32, (rac)-(E)-2-(2-(4-nitro-1H-indol-3-yl)vinyl)-6,7,10,11-tetrahydrodipyrido[2,1-a:1′,2′-k][2,9]phenanthroline-5,12-diium trifluoromethanesulfonate] |  | 6.6 °C | 9.3 °C
C(=C\c1c(-c2ccccc2)[nH]c2ccccc12)/c1cc2ccccc2[n+]2c1-c1c(ccc3c1-c1cccc[n+]1CCC3)CCC2.O=S(=O)([O-])C(F)(F)F.O=S(=O)([O-])C(F)(F)F [MSC-C15-8, 19-((E)-2-(2-phenyl-1H-indol-3-yl)vinyl)-6,7,8,11,12,13-hexahydropyrido[1′″,2′″:1″,2″]azepino[4″,3″:5′,6′]benzo[1′,2′:3,4]azepino[1,2-a]quinoline-5,14-diium trifluoromethanesulfonate] | 58% |  | 
Cc1c(C)c2c(c3c1CC[n+]1ccc(/C=C/c4cccc5c4oc4ccccc45)cc1-3)-c1c3ccccc3cc[n+]1CC2 (racemic) [MJA-C13-8, (rac)-(E)-13-(2-(dibenzo[b,d]furan-4-yl)vinyl)-6,7-dimethyl-4,5,8,9-tetrahydroisoquinolino[1,2-a]pyrido[1,2-k][2,9]phenanthroline-3,10-diium trifluoromethanesulfonate] | 58% | 1.4 °C | 7.4 °C
C(=C\c1cccc2c1oc1ccccc12)/c1cc[n+]2c(c1)-c1c(ccc3c1-c1c4ccccc4cc[n+]1CC3)CC2.O=S(=O)([O-])C(F)(F)F.O=S(=O)([O-])C(F)(F)F [MSB-C13-8, (E)-13-(2-(dibenzo[b,d]furan-4-yl)vinyl)-4,5,8,9-tetrahydroisoquinolino[1,2-a]pyrido[1,2-k][2,9]phenanthroline-3,10-diium trifluoromethanesulfonate] |  | 3.4 °C | 9.0 °C
